Values of other authors, collected in patent US20050158380A1, “Sustained release oral dosage forms of gabapentin” (priority 2002, published 2005).

Conditions: in vivo

NCC1(CC(=O)O)CCCCC1 [Gabapentin, 1-(aminomethyl)cyclohexaneacetic acid]
half-life: 5 to 7 h
